Laboratory results from patent US20230192700A1, “PYRAZOLOPYRAZINES ACTING ON CANCERS VIA INHIBITION OF CDK12” (Bayer Aktiengesellschaft, priority 2020, published 2023).
pIC50: −log10 of the molar value. Where two headings read alike, the source gives them in different places.

Legend:
[1] = test system: CAL-120 human breast adenocarcinoma cells; test: Proliferation assay CAL-120 (crystal violet); format: cell-based; conditions: CAL-120 cells, 4 days, median, read-out: Prolif-CAL-120— IC50 - [mol/l] (median)
Description: 4. Proliferation assay: MDA-MB-231, CAL-120
Human tumour cells were originally obtained from the American Type Culture Collection (ATCC), or from the Deutsche Sammlung von Mikroorganismen and Zellkulturen (DSMZ, German Collection of Microorganisms and Cell Cultures). Cultivated tumour cells (CAL-120, human breast adenocarcinoma cells, DSMZ ACC-459; MDA-M B-231, human breast cancer cells, ATCC HTB-26) were plated at a density of 4,000 cells/well in a 96-well multititer plate in 200 microL of their respective growth medium supplemented 10% fetal calf serum. After 24 hours, the cells of one plate (zero-point plate) were stained with crystal violet (see below), while the medium of the other plates was supplemented with the test substances in various concentrations (0 micromol/L, as well as in the range of 0.01-10 micromol/L; the final concentration of the solvent dimethyl sulfoxide was adjusted to 0.1%) using a Tecan HP D300 Digital Dispenser. The cells were incubated for 4 days in the presence of test substances. Cell proliferation was determined by staining the cells with crystal violet: the cells were fixed by adding 20 microL/measuring point of an 11% glutaric aldehyde solution for 15 minutes at room temperature. After three washing cycles of the fixed cells with water, the plates were dried at room temperature. The cells were stained by adding 100 microL/measuring point of a 0.1% crystal violet solution (pH 3.0). After three washing cycles of the stained cells with water, the plates were dried at room temperature. The dye was dissolved by adding 100 microL/measuring point of a 10% acetic acid solution. The extinction was determined by photometry at a wavelength of 595 nm. The change of cell number, in percent, was calculated by normalization of the measured values to the extinction values of the zero-point plate(=0%) and the extinction of the untreated (0 μM) cells(=100%). The IC50 values (inhibitory concentration at 50% of maximal effect) were determined by means of a 4 parameter fit.

[2] = target: T1, CDK12/CyclinK (Homo sapiens, UniProt Q9NYV4); test: CDK12/CycK high ATP kinase assay (TR-FRET); format: biochemical; conditions: 2 mM ATP (high ATP); median; read-out: CDK12/CyclinK, 2 mM ATP (high ATP), IC50 - [mol/l] (median)
T1 construct: His-CDK12 (aa Q696-S1082); made in house; host or cells: Hi-5 insect cells (baculovirus co-infection with CycK and yeast CAK1)
In short: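 Human His-tagged CDK12/CycK (about 0.75 nM) preincubated with compound 15 min, then reacted 60 min at 22 °C with 2 mM ATP and 1 µM biotinylated peptide in HEPES pH 7.5 buffer. Phospho-Ser62 c-Myc epitope detected by TR-FRET (665/620 nm ratio); data normalised to no-inhibitor and no-enzyme controls.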

T1 sequence (Q9NYV4 with tags, fused parts or gaps): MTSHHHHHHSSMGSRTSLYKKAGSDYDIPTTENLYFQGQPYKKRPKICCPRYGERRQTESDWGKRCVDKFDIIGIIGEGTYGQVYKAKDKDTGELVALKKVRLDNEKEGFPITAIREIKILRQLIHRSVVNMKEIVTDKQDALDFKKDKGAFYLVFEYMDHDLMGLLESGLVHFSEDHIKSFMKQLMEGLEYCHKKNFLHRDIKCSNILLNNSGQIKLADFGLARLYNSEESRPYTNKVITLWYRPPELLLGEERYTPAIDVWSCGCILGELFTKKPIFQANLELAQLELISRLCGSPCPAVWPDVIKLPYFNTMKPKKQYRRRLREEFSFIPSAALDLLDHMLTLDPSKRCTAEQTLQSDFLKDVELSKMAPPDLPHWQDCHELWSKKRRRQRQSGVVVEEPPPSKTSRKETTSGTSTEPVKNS
T1 sequence (O75909 with tags, fused parts or gaps partner limits assumed): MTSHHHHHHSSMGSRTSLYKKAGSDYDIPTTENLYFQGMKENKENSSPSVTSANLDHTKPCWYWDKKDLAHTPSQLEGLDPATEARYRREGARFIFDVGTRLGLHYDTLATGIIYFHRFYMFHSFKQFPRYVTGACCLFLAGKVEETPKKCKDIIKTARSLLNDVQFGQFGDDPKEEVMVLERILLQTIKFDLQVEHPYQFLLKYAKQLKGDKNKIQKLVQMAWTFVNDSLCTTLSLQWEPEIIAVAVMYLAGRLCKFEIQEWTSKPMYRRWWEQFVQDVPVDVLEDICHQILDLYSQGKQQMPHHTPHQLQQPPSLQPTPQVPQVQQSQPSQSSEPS

SMILES	pIC50 ([1]; Homo sapiens, CAL-120, 96 h)	pIC50 [2]	pIC50 [1]
OC[C@H]1C[C@@H](n2nc(NCc3nc4ccccc4[nH]3)c3ncc(C4CC4)nc32)C1 [Example 47, [cis-3-(3-{[(1H-benzimidazol-2-yl)methyl]amino}-6-cyclopropyl-1H-pyrazolo[3,4-b]pyrazin-1-yl)cyclobutyl]methanol]	7.56	4.89	
CC(C)(O)Cn1nc(NCc2nc3ccccc3[nH]2)c2ncc(C3CC3)nc21 [Example 69, 1-(3-{[(1H-benzimidazol-2-yl)methyl]amino}-6-cyclopropyl-1H-pyrazolo[3,4-b]pyrazin-1-yl)-2-methylpropan-2-ol]	6.70	< 5.00	
CC(CCN(C)C)n1nc(NCc2nc3ccccc3[nH]2)c2ncc(C3CC3)nc21 (racemic) [Example 62, (±)-N-[(1H-benzimidazol-2-yl)methyl]-6-cyclopropyl-1-[4-(dimethylamino)butan-2-yl]-1H-pyrazolo[3,4-b]pyrazin-3-amine]	6.52	< 4.70	
COCCC(C)n1nc(NCc2nc3ccccc3[nH]2)c2ncc(C3CC3)nc21 (racemic) [Example 57, (±)-N-[(1H-benzimidazol-2-yl)methyl]-6-cyclopropyl-1-(4-methoxybutan-2-yl)-1H-pyrazolo[3,4-b]pyrazin-3-amine]	6.98	< 4.70	
CN1CCC(n2nc(NCc3nc4c(C(F)(F)F)cccc4[nH]3)c3ncc(C4CC4)nc32)CC1 [Example 7, 6-cyclopropyl-1-(1-methylpiperidin-4-yl)-N-{[4-(trifluoromethyl)-1H-benzimidazol-2-yl]methyl}-1H-pyrazolo[3,4-b]pyrazin-3-amine]	7.98	< 4.70	
CC1CC(n2nc(NCc3nc4ccccc4[nH]3)c3ncc(C4CC4)nc32)CCN1C (racemic) [Example 41, (±)-cis/trans-N-[(1H-benzimidazol-2-yl)methyl]-6-cyclopropyl-1-(1,2-dimethylpiperidin-4-yl)-1H-pyrazolo[3,4-b]pyrazin-3-amine]	7.69	< 4.70	
COc1cccc2[nH]c(CNc3nn(C4CCOCC4)c4nc(C5CC5)cnc34)nc12 [Example 24, 6-cyclopropyl-N-[(4-methoxy-1H-benzimidazol-2-yl)methyl]-1-(oxan-4-yl)-1H-pyrazolo[3,4-b]pyrazin-3-amine]	8.00	4.74	
CN1CCC(n2nc(NCc3nc4ccccc4[nH]3)c3ncc(C4CC4)nc32)C1 (racemic) [Example 35, (±)-N-[(1H-benzimidazol-2-yl)methyl]-6-cyclopropyl-1-(1-methylpyrrolidin-3-yl)-1H-pyrazolo[3,4-b]pyrazin-3-amine]	7.93	< 4.70	
CN1CCC(n2nc(NCc3nc4cc(Cl)ccc4[nH]3)c3ncc(C4CC4)nc32)CC1 [Example 22, N-[(5-chloro-1H-benzimidazol-2-yl)methyl]-6-cyclopropyl-1-(1-methylpiperidin-4-yl)-1H-pyrazolo[3,4-b]pyrazin-3-amine]	8.38	< 4.70	
O[C@H]1C[C@H](Cn2nc(NCc3nc4ccccc4[nH]3)c3ncc(C4CC4)nc32)C1 [Example 70, trans-3-[(3-{[(1H-benzimidazol-2-yl)methyl]amino}-6-cyclopropyl-1H-pyrazolo[3,4-b]pyrazin-1-yl)methyl]cyclobutan-1-ol]	7.14	< 4.70	
c1ccc2[nH]c(CNc3nn(CC4CCC4)c4nc(C5CC5)cnc34)nc2c1 [Example 75, N-[(1H-benzimidazol-2-yl)methyl]-1-(cyclobutylmethyl)-6-cyclopropyl-1H-pyrazolo[3,4-b]pyrazin-3-amine]	6.57	< 4.70	
CN1CCCC(n2nc(NCc3nc4ccccc4[nH]3)c3ncc(C4CC4)nc32)CC1 (single isomer, unassigned) [Example 37, (+) or (−)-N-[(1H-benzimidazol-2-yl)methyl]-6-cyclopropyl-1-[(4R*)-1-methylazepan-4-yl]-1H-pyrazolo[3,4-b]pyrazin-3-amine]		< 4.70	8.38
OCCCn1nc(NCc2nc3ccccc3[nH]2)c2ncc(C3CC3)nc21 [Example 60, 3-(3-{[(1H-benzimidazol-2-yl)methyl]amino}-6-cyclopropyl-1H-pyrazolo[3,4-b]pyrazin-1-yl)propan-1-ol]	6.89	< 4.70	
CC(CCN(C)C)n1nc(NCc2nc3ccccc3[nH]2)c2ncc(C3CC3)nc21 (single isomer, unassigned) [Example 63, (+) or (−)-N-[(1H-benzimidazol-2-yl)methyl]-6-cyclopropyl-1-[4-(dimethylamino)butan-2-yl]-1H-pyrazolo[3,4-b]pyrazin-3-amine]		< 4.70	6.06
CN1CCC(n2nc(NCc3nc4c(Cl)c(F)ccc4[nH]3)c3ncc(C4CC4)nc32)CC1 [Example 31, N-[(4-chloro-5-fluoro-1H-benzimidazol-2-yl)methyl]-6-cyclopropyl-1-(1-methylpiperidin-4-yl)-1H-pyrazolo[3,4-b]pyrazin-3-amine]	8.15	< 4.70	
COCCn1nc(NCc2nc3ccccc3[nH]2)c2ncc(C3CC3)nc21 [Example 65, N-[(1H-benzimidazol-2-yl)methyl]-6-cyclopropyl-1-(2-methoxyethyl)-1H-pyrazolo[3,4-b]pyrazin-3-amine]	6.83	< 4.70	
OC1(Cn2nc(NCc3nc4ccccc4[nH]3)c3ncc(C4CC4)nc32)CCCC1 [Example 73, 1-[(3-{[(1H-benzimidazol-2-yl)methyl]amino}-6-cyclopropyl-1H-pyrazolo[3,4-b]pyrazin-1-yl)methyl]cyclopentan-1-ol]	6.96	< 5.00	
Cc1c(F)ccc2[nH]c(CNc3nn(C4CCN(C)CC4)c4nc(C5CC5)cnc34)nc12 [Example 26, 6-cyclopropyl-N-[(5-fluoro-4-methyl-1H-benzimidazol-2-yl)methyl]-1-(1-methylpiperidin-4-yl)-1H-pyrazolo[3,4-b]pyrazin-3-amine]	8.00	< 4.70	
COC(C)(C)CCn1nc(NCc2nc3ccccc3[nH]2)c2ncc(C3CC3)nc21 [Example 67, N-[(1H-benzimidazol-2-yl)methyl]-6-cyclopropyl-1-(3-methoxy-3-methylbutyl)-1H-pyrazolo[3,4-b]pyrazin-3-amine]	7.10	< 4.70	
CN1CCCC(n2nc(NCc3nc4ccccc4[nH]3)c3ncc(C4CC4)nc32)CC1 (single isomer, unassigned) [Example 38, (−) or (+)-N-[(1H-benzimidazol-2-yl)methyl]-6-cyclopropyl-1-[(4R*)-1-methylazepan-4-yl]-1H-pyrazolo[3,4-b]pyrazin-3-amine]		< 4.70	8.01
CN1CCC(n2nc(NCc3nc4cc(Cl)c(F)cc4[nH]3)c3ncc(C4CC4)nc32)CC1 [Example 29, N-[(5-chloro-6-fluoro-1H-benzimidazol-2-yl)methyl]-6-cyclopropyl-1-(1-methylpiperidin-4-yl)-1H-pyrazolo[3,4-b]pyrazin-3-amine]	8.01	< 4.70	
c1ccc2[nH]c(CNc3nn(C4CCC4)c4nc(C5CC5)cnc34)nc2c1 [Example 49, N-[(1H-benzimidazol-2-yl)methyl]-1-cyclobutyl-6-cyclopropyl-1H-pyrazolo[3,4-b]pyrazin-3-amine]	6.91	< 4.70	
CC(C)(C)OC(=O)N1CCC(n2nc(NCc3nc4ccccc4[nH]3)c3ncc(C4CC4)nc32)CC1 [Example 11, tert-butyl 4-(3-{[(1H-benzimidazol-2-yl)methyl]amino}-6-cyclopropyl-1H-pyrazolo[3,4-b]pyrazin-1-yl)piperidine-1-carboxylate]	7.09	< 4.70	
OC[C@H]1C[C@H](n2nc(NCc3nc4ccccc4[nH]3)c3ncc(C4CC4)nc32)C1 [Example 46, [trans-3-(3-{[(1H-benzimidazol-2-yl)methyl]amino}-6-cyclopropyl-1H-pyrazolo[3,4-b]pyrazin-1-yl)cyclobutyl]methanol]	7.70	< 4.70	
CC(C)(O)C1CC(n2nc(NCc3nc4ccccc4[nH]3)c3ncc(C4CC4)nc32)C1 (mixture of isomers) [Example 48, 2-[cis/trans-3-(3-{[(1H-benzimidazol-2-yl)methyl]amino}-6-cyclopropyl-1H-pyrazolo[3,4-b]pyrazin-1-yl)cyclobutyl]propan-2-ol]	7.37	4.86	
